Results reported in patent US20250243176A1, “(S)-1-(1-ACRYLOYLPIPERIDIN-3-YL)-2-FLUORO-5,6,7,8,9,10-HEXAHYDROCYCLO HEPTA[B]INDOLE-4-CARBOXAMIDE, AND RELATED CRYSTALLINE FORMS, COMPOSITIONS, AND METHODS THEREOF” (GB005, Inc., priority 2021, published 2025).
In brackets after ≈: the same amount, converted by molar mass.

Columns and labels:
[1] = pKa determination, Sirius T3 titrator (Form III); assay type: physicochemical; settings: titrations at 25° C., acidic and basic sites
Protocol: (§1) In each of the following studies (Examples 6-10), the starting material was Compound 1 (free form, not salt) Form III. The material was a light yellow solid, comprising non-hygroscopic irregular shaped crystal with aggregation. The same analytical methods as described in Example 1 were employed.
pKa was assessed using Sirius T3 titrator. The acidic and basic sites were very weak, and undetectable by Sirius T3.

[2] = Solubility testing in vehicle, HPLC (Form III); assay type: physicochemical; settings: for solubility at 24 h / solubility at 72 h / solubility at 4 h: thermodynamic from solid
Protocol: as §1
Vehicle solutions were prepared as follows:
Solubility was determined at room temperature for 24 and 72 hours and at 45° C. for 4 and 24 hours. About 30/100 mg Compound 1 was added to vehicle (2 mL) and the mixture stirred at room temperature for 24 or 72 hours. The suspensions were filtered or centrifuged, and the filtrate analyzed by HPLC.

In the case of `C=CC(=O)N1CCC[C@@H](c2c(F)cc(C(N)=O)c3[nH]c4c(c23)CCCCC4)C1` [Compound 1, (S)-1-(1-acryloylpiperidin-3-yl)-2-fluoro-5,6,7,8,9,10-hexahydrocyclohepta[b]indole-4-carboxamide], the pKa [1] is reported as “undetectable”, the Solubility ([2]; Capryol 90, RT, 72 h, pH 6.5, loading 50 mg/mL) is reported as greater than 50000 µg/mL and the Solubility ([2]; Cremophor HS 15, 45° C., 24 h, pH 7.5, loading 50 mg/mL) is reported as greater than 50000 µg/mL. It also gave a Solubility ([2]; Gelucire 44/14, 45° C., 24 h, pH 5.8, loading 50 mg/mL) greater than 50000 µg/mL, a Solubility ([2]; Gelucire 48/16, 45° C., 24 h, loading 50 mg/mL) greater than 50000 µg/mL and a Solubility ([2]; Labrasol, RT, 72 h, pH 6.4, loading 50 mg/mL) greater than 50000 µg/mL. It also gave a Solubility ([2]; PEG400/TPGS(3/1), 45° C., 24 h, pH 6.1, loading 50 mg/mL) greater than 50000 µg/mL, a Solubility ([2]; PEG400, RT, 72 h, pH 6.7, loading 50 mg/mL) greater than 50000 µg/mL and a Solubility ([2]; PG, RT, 72 h, pH 5.2, loading 50 mg/mL) greater than 50000 µg/mL. The solubility at 24 h ([2]; aqueous with cosolvent or surfactant or cyclodextrin, 1% SLS, RT, 24 h, pH 7.1, loading 15 mg/mL) was 1200 µg/mL (≈ 3.13 mM), the solubility at 72 h ([2]; aqueous with cosolvent or surfactant or cyclodextrin, 1% SLS, RT, 72 h, pH 7.2, loading 15 mg/mL) was 1150 µg/mL (≈ 3 mM) and the solubility at 24 h ([2]; aqueous with cosolvent or surfactant or cyclodextrin, 1% Tween 80, RT, 24 h, pH 6.3, loading 15 mg/mL) was 160 µg/mL (≈ 0.417 mM). For the same compound, the solubility at 72 h ([2]; aqueous with cosolvent or surfactant or cyclodextrin, 1% Tween 80, RT, 72 h, pH 6.3, loading 15 mg/mL) was 170 µg/mL (≈ 0.443 mM), the solubility at 24 h ([2]; aqueous with cosolvent or surfactant or cyclodextrin, 1% polox188, RT, 24 h, pH 5.7, loading 15 mg/mL) was 0.2 µg/mL (≈ 0.000522 mM) and the solubility at 72 h ([2]; aqueous with cosolvent or surfactant or cyclodextrin, 1% polox188, RT, 72 h, pH 5.7, loading 15 mg/mL) was 0.4 µg/mL (≈ 0.00104 mM). The solubility at 24 h ([2]; aqueous with cosolvent or surfactant or cyclodextrin, 1% polox407, RT, 24 h, pH 6.7, loading 15 mg/mL) was 4 µg/mL (≈ 0.0104 mM), the solubility at 72 h ([2]; aqueous with cosolvent or surfactant or cyclodextrin, 1% polox407, RT, 72 h, pH 6.9, loading 15 mg/mL) was 1 µg/mL (≈ 0.00261 mM) and the solubility at 24 h ([2]; aqueous with cosolvent or surfactant or cyclodextrin, 5% PVP K30, RT, 24 h, pH 4.0, loading 15 mg/mL) was 8 µg/mL (≈ 0.0209 mM). It also gave a solubility at 72 h ([2]; aqueous with cosolvent or surfactant or cyclodextrin, 5% PVP K30, RT, 72 h, pH 4.0, loading 15 mg/mL) of 60 µg/mL (≈ 0.156 mM), a solubility at 24 h ([2]; aqueous with cosolvent or surfactant or cyclodextrin, 5% PVP VA64, RT, 24 h, pH 4.6, loading 15 mg/mL) of 36 µg/mL (≈ 0.0939 mM) and a solubility at 72 h ([2]; aqueous with cosolvent or surfactant or cyclodextrin, 5% PVP VA64, RT, 72 h, pH 4.6, loading 15 mg/mL) of 42 µg/mL (≈ 0.11 mM). For the same compound, the solubility at 24 h ([2]; aqueous with cosolvent or surfactant or cyclodextrin, 10% HP-B-CD, RT, 24 h, pH 6.7, loading 15 mg/mL) was 230 µg/mL (≈ 0.6 mM), the solubility at 72 h ([2]; aqueous with cosolvent or surfactant or cyclodextrin, 10% HP-B-CD, RT, 72 h, pH 6.7, loading 15 mg/mL) was 220 µg/mL (≈ 0.574 mM) and the solubility at 24 h ([2]; aqueous with cosolvent or surfactant or cyclodextrin, 10% SBE-B-CD, RT, 24 h, pH 6.5, loading 15 mg/mL) was 1600 µg/mL (≈ 4.17 mM). The solubility at 72 h ([2]; aqueous with cosolvent or surfactant or cyclodextrin, 10% SBE-B-CD, RT, 72 h, pH 6.5, loading 15 mg/mL) was 1610 µg/mL (≈ 4.2 mM), the solubility at 24 h ([2]; aqueous with cosolvent or surfactant or cyclodextrin, 10% TPGS, RT, 24 h, pH 5.3, loading 15 mg/mL) was 2030 µg/mL (≈ 5.29 mM) and the solubility at 72 h ([2]; aqueous with cosolvent or surfactant or cyclodextrin, 10% TPGS, RT, 72 h, pH 5.3, loading 15 mg/mL) was 2040 µg/mL (≈ 5.32 mM). It also gave a solubility at 4 h ([2]; aqueous with cosolvent or surfactant or cyclodextrin, Cremophor RH40, 45° C., loading 50 mg/mL) of 18600 µg/mL (≈ 48.5 mM), a solubility at 4 h ([2]; aqueous with cosolvent or surfactant or cyclodextrin, Gelucire 44/14, 45° C., pH 5.7, loading 50 mg/mL) of 48100 µg/mL (≈ 125 mM) and a solubility at 24 h ([2]; aqueous with cosolvent or surfactant or cyclodextrin, Gelucire 44/14, 45° C., 24 h, pH 5.8, loading 50 mg/mL) greater than 50000 µg/mL. It also gave a solubility at 4 h ([2]; aqueous with cosolvent or surfactant or cyclodextrin, Gelucire 48/16, 45° C., loading 50 mg/mL) of 44300 µg/mL (≈ 116 mM), a solubility at 24 h ([2]; aqueous with cosolvent or surfactant or cyclodextrin, Gelucire 48/16, 45° C., 24 h, loading 50 mg/mL) greater than 50000 µg/mL and a solubility at 24 h ([2]; aqueous with cosolvent or surfactant or cyclodextrin, Labrasol, RT, 24 h, pH 6.9, loading 50 mg/mL) greater than 50000 µg/mL. For the same compound, the solubility at 72 h ([2]; aqueous with cosolvent or surfactant or cyclodextrin, Labrasol, RT, 72 h, pH 6.4, loading 50 mg/mL) was greater than 50000 µg/mL, the solubility at 24 h ([2]; oil or lipid, Capryol 90, RT, 24 h, pH 6.8, loading 50 mg/mL) was 47900 µg/mL (≈ 125 mM) and the solubility at 72 h ([2]; oil or lipid, Capryol 90, RT, 72 h, pH 6.5, loading 50 mg/mL) was greater than 50000 µg/mL. For the same compound, the solubility at 24 h ([2]; oil or lipid, Miglyol 810, RT, 24 h, pH 5.8, loading 15 mg/mL) was 2160 µg/mL (≈ 5.63 mM), the solubility at 72 h ([2]; oil or lipid, Miglyol 810, RT, 72 h, pH 5.8, loading 15 mg/mL) was 2670 µg/mL (≈ 6.96 mM) and the solubility at 4 h ([2]; oil or lipid, Oleic acid, 45° C., pH 3.0, loading 15 mg/mL) was 8500 µg/mL (≈ 22.2 mM). The solubility at 24 h ([2]; oil or lipid, Oleic acid, 45° C., 24 h, pH 3.3, loading 15 mg/mL) was 14000 µg/mL (≈ 36.5 mM), the solubility at 24 h ([2]; oil or lipid, Olive oil, RT, 24 h, pH 5.2, loading 15 mg/mL) was 440 µg/mL (≈ 1.15 mM) and the solubility at 72 h ([2]; oil or lipid, Olive oil, RT, 72 h, pH 5.8, loading 15 mg/mL) was 910 µg/mL (≈ 2.37 mM).
